Assay results from US20100168054A1, “Functionalized Beta 1,6 Glucosamine Disaccharides and Process for Their Preparation” (OM PHARMA, priority 2006, published 2010).

Key:
[1] = tested on: human peripheral blood mononuclear cells (PBMC); test: TNF-α secretion by human PBMC (ELISA); type: cell-based; conditions: for TNF-α: 24 h; for TNF-α induction (in words): 0.2, 2, 20 μg/ml
Description: (§1) Peripheral blood from healthy donors (Centre de transfusion, Hôpital Universitaire, Geneva) was centrifuged to get the buffy coat. The buffy coat was mixed with Hanks' balanced saline solution (HBSS, Sigma, Buchs, Switzerland), layered over Ficoll Paque Plus (Amersham Pharmacia) to 1.077 g/mL and centrifuged (2800 rpm, 20° C., 25 min). Cells harvested from the interphase were washed twice in HBSS at 800 rpm for 15 min at room temperature and the pelleted cells were resuspended in HBSS. The cell counts were performed using a Neubauer cell. All cell cultures were performed in RPMI-1640 medium supplemented with penicillin (100 U/mL), streptomycin (100 μg/mL), L-glutamine (2 mmol/L) and 10% fetal calf serum (FCS), all obtained from Sigma. For in vitro stimulation, the cells were cultured at a concentration of 1×10^6 viable cells/well.
(§2) PBMC were incubated at 37° C. and under 5% CO2 atmosphere with the controls (see below) and with the products of the invention at 1, 5, and 20 μg/mL for IL-6, and at 0.2, 2, and 20 μg/mL for TNF-α secretion. Medium: RPMI alone.
(§3) The surpernatants of the cultures were harvested after 24 h and the concentration of IL-6 and TNF-α were measured by an enzyme-linked immunosorbent assay (ELISA) (Human IL-6 and TNF-α ELISA Set, BD OptEIA, San Diego, USA), according to the manufacturer instructions. The detection limits were 10 and 8 pg/mL respectively.

rat mast cells = test: Histamine secretion (compound 48/80-stimulated); type: cell-based; conditions: compound 48/80 0.1 μg/ml, 2 min, 37° C.; read-out: IC50, mean of the reference (5 different tests)
Description: Using an in vitro rat model of mast cell degranulation (proposed by the CRO CEREP, catalog number 2006: 771-c), we aimed to investigate whether the synthetic molecules OM-174-DP (compound 1b) OM-174-MP-PD (19), OM-174-MP-EP (33), OM-174-MP-CM (35c) and OM-174-MP-PR (17) would inhibit histamine secretion by compound 48/80-stimulated mastocytes. The protocol used is briefly summarized below:
The results are expressed as a percent of control specific activity ((measured specific activity/control specific activity)×100) obtained in the presence of the test compounds. The IC50 values (concentration causing a half-maximal inhibition of control specific activity) were determined by non-linear regression analysis of the inhibition curves generated with mean replicate values using Hill equation curve fitting (Y=D+[(A−D)/(1+(C/C50)nH)], where Y=specific activity, D=minimum specific activity, A=maximum specific activity, C=compound concentration, C50=IC50, and nH=slope factor). This analysis was performed using a software developed at Cerep (Hill software) and validated by comparison with data generated by the commercial software SigmaPlot® 4.0 for Windows® (© 1997 by SPSS Inc.).
In each experiment, the reference compound was tested concurrently with the test compounds in order to assess the assay suitability. It was tested at several concentrations (for IC50 value determination), and the data were compared with historical values determined at CEREP. The assay was rendered valid if the suitability criteria were met, in accordance with the corresponding Standard Operating Procedure.

TLR2 = biological target: T1, TLR2 (Homo sapiens, UniProt O60603); test: HEK-TLR2 IL-8 secretion; type: cell-based; conditions: 24 h
T1 construct: host or cells: HEK293
T1 sequence (O60603 21-784): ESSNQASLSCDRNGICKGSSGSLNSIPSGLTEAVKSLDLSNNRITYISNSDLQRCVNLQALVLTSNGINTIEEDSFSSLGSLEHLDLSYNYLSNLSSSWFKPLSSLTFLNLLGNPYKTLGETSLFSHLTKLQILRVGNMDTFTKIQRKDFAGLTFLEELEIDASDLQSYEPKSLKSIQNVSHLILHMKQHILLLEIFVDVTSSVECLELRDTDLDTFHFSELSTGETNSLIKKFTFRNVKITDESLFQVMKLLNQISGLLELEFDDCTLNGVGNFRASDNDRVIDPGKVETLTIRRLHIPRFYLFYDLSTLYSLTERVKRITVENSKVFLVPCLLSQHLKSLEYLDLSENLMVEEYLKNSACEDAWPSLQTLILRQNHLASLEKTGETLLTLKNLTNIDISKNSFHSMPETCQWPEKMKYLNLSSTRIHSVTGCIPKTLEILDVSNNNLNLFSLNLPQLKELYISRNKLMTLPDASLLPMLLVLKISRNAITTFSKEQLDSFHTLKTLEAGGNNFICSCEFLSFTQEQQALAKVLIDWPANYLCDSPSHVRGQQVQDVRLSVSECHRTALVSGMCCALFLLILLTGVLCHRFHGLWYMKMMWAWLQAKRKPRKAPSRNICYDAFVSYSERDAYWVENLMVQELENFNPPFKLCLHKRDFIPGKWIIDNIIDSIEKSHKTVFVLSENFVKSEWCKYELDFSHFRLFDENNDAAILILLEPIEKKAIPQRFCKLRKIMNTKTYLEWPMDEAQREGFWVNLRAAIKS
Description: (§4) The HEK293 cell line was chosen for its null or low basal expression of the TLR genes. These cells enable efficient monitoring of TLR activity using ELISA analysis such as IL-8 titration or reporter-based systems that monitor TLR-induced NF-κB activation. HEK-TLR2 cells (Invivogen, Toulouse, France) are engineered HEK293 cells stably transfected with multiple genes from the TLR2 pathway that include TLR2 and genes participating in the recognition or involved in the signaling cascade. These cells secrete IL-8 after TLR2 stimulation. The experiments were performed according to manufacturers' instructions. Briefly, 2×10^4 cells/well (200 ul RPMI) are incubated at 37° C. during 3 days (5% CO2). The medium is removed, and 90 ul RPMi+5% FCS is added to the wells Then the agonists and controls are added (10 ul/well). The cells return to the incubator for 24 hours. The supernatants are collected and the IL-8 ELISA is performed according to manufacturer's instructions

TLR2 and CD14 = biological target: T2, TLR2 and CD14 (Homo sapiens, UniProt O60603); test: HEK-TLR2-CD14 IL-8 secretion; type: cell-based; conditions: 24 h
T2 construct: expressed in transfected cells; host or cells: HEK (HEK-TLR2-CD14 cell line)
T2 sequence (O60603 21-784): as above
Description: as §4, with “manufacturer's instructions These preliminary results were confirmed in another cell line expressing concomitantly TLR2 and CD14. The procedure used is similar to the one described just above.” for “manufacturer's instructions”

TLR4 = biological target: T3, TLR4 (Homo sapiens, UniProt O00206+Q9Y6Y9); test: HEK-MD2-TLR4-CD14 IL-8 secretion; type: cell-based; conditions: 24 h
T3 construct: expressed in transfected cells; host or cells: HEK293
T3 sequence (O00206 24-839): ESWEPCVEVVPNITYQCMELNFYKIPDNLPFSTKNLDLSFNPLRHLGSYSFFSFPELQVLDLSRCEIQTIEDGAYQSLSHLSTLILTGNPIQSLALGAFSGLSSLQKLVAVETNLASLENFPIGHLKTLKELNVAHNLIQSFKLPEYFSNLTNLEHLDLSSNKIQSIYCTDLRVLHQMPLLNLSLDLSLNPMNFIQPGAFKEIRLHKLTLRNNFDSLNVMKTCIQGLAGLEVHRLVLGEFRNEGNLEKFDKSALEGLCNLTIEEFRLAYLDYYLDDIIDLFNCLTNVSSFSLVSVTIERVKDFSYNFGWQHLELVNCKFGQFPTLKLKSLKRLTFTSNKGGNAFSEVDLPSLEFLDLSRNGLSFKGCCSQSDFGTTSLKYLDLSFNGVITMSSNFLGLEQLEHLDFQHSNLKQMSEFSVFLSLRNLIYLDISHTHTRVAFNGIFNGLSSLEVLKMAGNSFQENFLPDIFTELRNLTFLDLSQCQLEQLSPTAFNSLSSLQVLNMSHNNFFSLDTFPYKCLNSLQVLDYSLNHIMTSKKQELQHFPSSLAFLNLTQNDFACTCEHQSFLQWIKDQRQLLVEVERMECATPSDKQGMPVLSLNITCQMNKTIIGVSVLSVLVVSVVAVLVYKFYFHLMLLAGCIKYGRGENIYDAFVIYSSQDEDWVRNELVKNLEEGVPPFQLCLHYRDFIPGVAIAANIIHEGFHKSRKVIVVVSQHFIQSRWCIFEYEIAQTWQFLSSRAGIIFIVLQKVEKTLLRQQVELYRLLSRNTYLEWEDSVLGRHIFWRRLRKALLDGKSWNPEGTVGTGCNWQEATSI
T3 sequence (Q9Y6Y9 17-160 limits assumed): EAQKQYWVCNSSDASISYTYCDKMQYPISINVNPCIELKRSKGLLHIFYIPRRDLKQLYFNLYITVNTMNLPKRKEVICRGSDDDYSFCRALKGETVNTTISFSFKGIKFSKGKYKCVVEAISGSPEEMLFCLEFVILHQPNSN
Description: as §4
HEK-MD2-TLR4-CD14 are highly sensitive to LPS. They were obtained by stable transfection of HEK293 cells with the TLR4, MD2 and CD14 genes and an NF-κB-inducible reporter system. They secrete IL-8. We used the same experimental procedure as for the other HEK cell lines described above.

[2] = tested on: THP1-Blue cells (express naturally both TLR2 and TLR4); test: THP1-Blue NF-κB/AP-1-inducible SEAP reporter; type: cell-based, human; conditions: 48 h
Description: A first series of experiment was performed on THP-1 cells, which express naturally both TLR2 and TLR4. THP-1 cells are human peripheral blood monocytic cells. Monocytes play a key role in innate immunity and express most TLRs at various levels. As for the primary cells, THP-1 cells activate NF-κB and other transcription factors in response to TLR ligands
To facilitate analysis of TLR response in monocytes, InvivoGen (Toulouse, France) provides THP-1 clones stably transfected with an NF-κB-inducible reporter system, called THP1-Blue™. THP-1 Blue cells were stably transfected with a reporter plasmid expressing a secreted embryonic alkaline phosphatase (SEAP) gene under the control of a promoter inducible by several transcription factors such as NF-κB and AP-1. Upon TLR stimulation, THP1-Blue™ cells activate transcription factors and subsequently the secretion of SEAP which is easily detectable when using QUANTI-Blue\u2122a medium that turns purple/blue in the presence of SEAP.
The cells were stimulated with the controls and compounds of the invention according to manufacturer's instructions. Results: Increased OD at 625 Nm after 48 Hours: The results for the controls (negative=LPS K12CD25 ultrapure, a TLR4 agonist; and PAM3CSK4=positive, a TLR2 agonist) are provided in the table below. The results (expressed as OD of arbitrary units) show the mean values (from duplicate measures) of Optical density read at 625 nm, 48 h after stimulation at 37° C. with the controls (up to 1000 ng/ml): […]

[3] = tested on: human peripheral blood mononuclear cells (PBMC); test: IL-6 secretion by human PBMC (ELISA); type: cell-based; conditions: for IL6: 24 h
Description: as §1, §2, §3
PBMC are incubated at 37° C. and under 5% CO2 atmosphere with the products of the invention.
The supernatants of the cultures are harvested after 24 h and the concentration of IL-6 was measured by an enzyme-linked immunosorbent assay (ELISA) (Human IL-6 ELISA Set, BD OptEIA, San Diego, USA), according to the manufacturer instructions. The detection limit was 10 pg/mL.

CCCCCCCCCCCCCCO[C@@H]1O[C@H](CO[C@@H]2O[C@H](CO)[C@@H](OP(=O)(O)O)[C@H](O)[C@H]2NC(=O)C[C@@H](CCCCCCCCCCC)OC(=O)CCCCCCCCCCC)[C@@H](O)[C@H](O)[C@H]1NC(=O)C[C@H](O)CCCCCCCCCCC [compound 41c, Tetradecyl-2-Deoxy-6-O-[2-deoxy-4-O-(dihydroxyphosphoryl)-2-[(R)-3-dodecanoyloxytetradecanoylamino]-β-D-glucopyranosyl]-2-[(R)-3-hydroxytetradecanoylamino]-β-D-glucopyranoside]
TNF-α ([1]; 0.2 μg/ml): 570 pg/mL
TNF-α ([1]; 2 μg/ml): 6036 pg/mL
TNF-α ([1]; 20 μg/ml): 9769 pg/mL
TNF-α induction (in words) [1]: induced high levels of TNF-α

O=C(O)c1cc(=O)c2c(OCC(O)COc3cccc4oc(C(=O)O)cc(=O)c34)cccc2o1 [SCG, reference compound]
IC50 (rat mast cells): 8.6 µM

CCCCCCCCCCCC(=O)O[C@H](CCCCCCCCCCC)CC(=O)NC1C(OCC2OC(OCCO)C(NC(=O)C[C@H](O)CCCCCCCCCCC)C(O)C2O)OC(CO)C(OP(=O)(O)O)C1O (stereo partly drawn) [compound 32, 2-Hydroxyethyl-2-Deoxy-6-O-[2-deoxy-4-O-(dihydroxyphosphoryl)-2-[(R)-3-dodecanoyloxytetradecanoylamino]-β-D-glucopyranosyl]-2-[(R)-3-hydroxytetradecanoylamino]-α-D-glucopyranoside]
TNF-α ([1]; 0.2 μg/ml): 5.5 pg/mL
TNF-α ([1]; 2 μg/ml): 7.8 pg/mL
TNF-α ([1]; 20 μg/ml): 251 pg/mL
TNF-α induction (in words) [1]: induced high levels of TNF-α

PAM3CSK4 [reference compound]
IL-8 secretion, mean (TLR2; 1 ng/ml): 1.84 pg/mL
IL-8 secretion, mean (TLR2; 4 ng/ml): 3.89 pg/mL
IL-8 secretion, mean (TLR2; 12 ng/ml): 9.12 pg/mL
IL-8 secretion, mean (TLR2; 37 ng/ml): 18.33 pg/mL
IL-8 secretion, mean (TLR2; 111 ng/ml): 23.93 pg/mL
IL-8 secretion, mean (TLR2; 333 ng/ml): 28.24 pg/mL
IL-8 secretion, mean (TLR2; 1000 ng/ml): 32.94 pg/mL
IL-8 secretion, mean (TLR2 and CD14; 1 ng/ml): 1.33 pg/mL
IL-8 secretion, mean (TLR2 and CD14; 4 ng/ml): 2.55 pg/mL
IL-8 secretion, mean (TLR2 and CD14; 12 ng/ml): 6.78 pg/mL
IL-8 secretion, mean (TLR2 and CD14; 37 ng/ml): 15.90 pg/mL
IL-8 secretion, mean (TLR2 and CD14; 111 ng/ml): 22.64 pg/mL
IL-8 secretion, mean (TLR2 and CD14; 333 ng/ml): 33.30 pg/mL
IL-8 secretion, mean (TLR2 and CD14; 1000 ng/ml): 39.04 pg/mL
IL-8 secretion, mean (TLR4; 1 ng/ml): 1.75 pg/mL
IL-8 secretion, mean (TLR4; 4 ng/ml): 1.78 pg/mL
IL-8 secretion, mean (TLR4; 12 ng/ml): 1.76 pg/mL
IL-8 secretion, mean (TLR4; 37 ng/ml): 1.72 pg/mL
IL-8 secretion, mean (TLR4; 111 ng/ml): 1.83 pg/mL
IL-8 secretion, mean (TLR4; 333 ng/ml): 1.87 pg/mL
IL-8 secretion, mean (TLR4; 1000 ng/ml): 2.17 pg/mL
Optical density read at 625 nm, mean of duplicates ([2]; 1 ng/ml): 0.48 OD
Optical density read at 625 nm, mean of duplicates ([2]; 4 ng/ml): 0.85 OD
Optical density read at 625 nm, mean of duplicates ([2]; 12 ng/ml): 1.11 OD
Optical density read at 625 nm, mean of duplicates ([2]; 37 ng/ml): 1.22 OD
Optical density read at 625 nm, mean of duplicates ([2]; 111 ng/ml): 1.30 OD
Optical density read at 625 nm, mean of duplicates ([2]; 333 ng/ml): 1.38 OD
Optical density read at 625 nm, mean of duplicates ([2]; 1000 ng/ml): 1.35 OD

CCCCCCCCCCCC(=O)O[C@H](CCCCCCCCCCC)CC(=O)NC1C(OCC2OC(OCCCCCCN)C(NC(=O)C[C@H](O)CCCCCCCCCCC)C(O)C2O)OC(CO)C(OP(=O)(O)O)C1O (stereo partly drawn) [compound 26, 6-Aminohexyl-2-deoxy-6-O-[2-deoxy-4-O-(dihydroxyphosphoryl)-2-[(R)-3-dodecanoyloxytetradecanoylamino]-β-D-glucopyranosyl]-2-[(R)-3-hydroxytetradecanoylamino]-β-D-glucopyranoside]
TNF-α ([1]; 0.2 μg/ml): 29.3 pg/mL
TNF-α ([1]; 2 μg/ml): 1264 pg/mL
TNF-α ([1]; 20 μg/ml): 7016 pg/mL
TNF-α induction (in words) [1]: induced high levels of TNF-α
IL6 ([3]; 1 μg/ml): 269.0 pg/mL
IL6 ([3]; 5 μg/ml): 1923.2 pg/mL
IL6 ([3]; 20 μg/ml): 8349.3 pg/mL
IL-6 secretion (in words) ([3]; 1, 5, 20 μg/ml): able to induce IL-6 secretion
